Where a name gives a salt, the structure may show the parent alone. Read-outs that look alike come from different tables or passages of the source.

Assay [1] concerns the target muscarinic receptors. The experiment in a line: Radio ligand binding: displacement of the muscarinic agonist 3H-Oxotremorine-M (3H-OXO-M). Also noted: species or system rat (Hooded Lister). The note with it: 2 nM 3H-OXO-M, rat cerebral cortex membranes, 2 mM magnesium chloride, 37° C., 30 min.
Assay [2] deals with muscarinic receptors. The format is binding, rat (Hooded Lister). The note with it: 0.27 nM 3H-QNB, rat cerebral cortex membranes, 37° C., 30 min.

In the case of `CON=C(F)C1=CC2CCN(C1)C2` (racemic) [Compound E3, (±) 1-Azabicyclo[3.2.1]oct-3-en-3-yl-N-methoxcarboximidoyl fluoride oxalate salt], the IC50 in assay [1] came out at 26 nM; in assay [2], 320 nM.
For `CON=C(Cl)C1=CC2CCN(C1)C2` (racemic) [Compound E2, (±) 1-Azabicyclo[3.2.1]oct-3-en-3-yl-N-methoxycarboximidoyl chloride oxalate salt] the same measures were 100 nM and 1100 nM.
In the same order, the values of `CON=C(C)C1=CC2CCN(C1)C2` (racemic) [Compound E5, (±)trans 3-Acetyl-1-azabicyclo[3.2.1]oct-3-ene-O-methyloxime hydrochloride salt] are 175 nM and 1450 nM.
For `CON=C(C#N)C1=CC2CCN(C1)C2` (racemic) [Compound E6, (±)-α-(Methoxyimino)-α-(1-azabicyclo[3.2.1]oct-3-en-3-yl)acetonitrile oxalate salt] the same measures were 21 nM and 330 nM.
`CON=CC1=CC2CCN(C1)C2` (mixture of isomers) [Compound E4, (±) syn-1-Azabicyclo[3.2.1]oct-3-en-3-ylcarboxaldehyde-O-methyloxime hydrochloride salt]: the IC50 in assay [1] was determined as 70 nM; in assay [2], 1250 nM.

Broadly, the IC50 is the point on the concentration scale where inhibition reaches its midpoint. The low end stands for higher potency, the high end for lower potency.

These data come from patent publication US5362739A (priority 1990, dated 1994).
